Laboratory results taken from PubChem BioAssay (NCI).
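The concentration for 50% growth inhibition is given as GI50. TGI is the concentration that stops growth completely.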

Legend:
Experiment in all cases: growth of human tumour cells (NCI), 384-well format
TK-10 renal = test system: TK-10 renal
MDA-MB-468 breast = test system: MDA-MB-468 breast
OVCAR-8 ovarian = test system: OVCAR-8 ovarian
PC-3 prostate = test system: PC-3 prostate
RXF 393 renal = test system: RXF 393 renal
SN12C renal = test system: SN12C renal
NCI/ADR-RES ovarian = test system: NCI/ADR-RES ovarian
SK-MEL-5 melanoma = test system: SK-MEL-5 melanoma
NCI-H522 lung = test system: NCI-H522 lung
SF-268 CNS = test system: SF-268 CNS
NCI-H226 lung = test system: NCI-H226 lung
SK-MEL-28 melanoma = test system: SK-MEL-28 melanoma
LOX IMVI melanoma = test system: LOX IMVI melanoma

| Compound | GI50 (TK-10 renal) | TGI (TK-10 renal) | GI50 (MDA-MB-468 breast) | TGI (MDA-MB-468 breast) | GI50 (OVCAR-8 ovarian) | TGI (OVCAR-8 ovarian) | GI50 (PC-3 prostate) | TGI (PC-3 prostate) | GI50 (RXF 393 renal) | TGI (RXF 393 renal) | GI50 (SN12C renal) | TGI (SN12C renal) | GI50 (NCI/ADR-RES ovarian) | TGI (NCI/ADR-RES ovarian) | GI50 (SK-MEL-5 melanoma) | TGI (SK-MEL-5 melanoma) | GI50 (NCI-H522 lung) | TGI (NCI-H522 lung) | GI50 (SF-268 CNS) | TGI (SF-268 CNS) | other results |
| --- | --- | --- | --- | --- | --- | --- | --- | --- | --- | --- | --- | --- | --- | --- | --- | --- | --- | --- | --- | --- | --- |
| CC(C)N(CCCNC(=O)Nc1ccc(C(C)(C)C)cc1)C[C@H]1O[C@@H](n2ccc3c(N)ncnc32)[C@H](O)[C@@H]1O | > 100 µM | > 100 µM | 23.1 µM | > 100 µM | > 100 µM | > 100 µM | > 100 µM | > 100 µM | > 100 µM | > 100 µM | > 100 µM | > 100 µM | > 100 µM | > 100 µM | > 100 µM | > 100 µM | > 100 µM | > 100 µM | > 63.7 µM | > 100 µM | GI50 (NCI-H226 lung): > 100 µM; TGI (NCI-H226 lung): > 100 µM; GI50 (SK-MEL-28 melanoma): > 100 µM; TGI (SK-MEL-28 melanoma): > 100 µM; GI50 (LOX IMVI melanoma): > 89 µM; TGI (LOX IMVI melanoma): > 100 µM |
| [2H]c1nc(C)nc([2H])c1-c1cc(NC[C@@H](C)c2cccc3c(C(=O)NC)ccnc23)ncn1 | > 100 µM | > 100 µM | > 100 µM | > 100 µM | > 100 µM | > 100 µM | > 100 µM | > 100 µM | > 100 µM | > 100 µM | > 100 µM | > 100 µM | > 100 µM | > 100 µM | > 100 µM | > 100 µM | > 100 µM | > 100 µM | > 100 µM | > 100 µM | GI50 (NCI-H226 lung): > 100 µM; TGI (NCI-H226 lung): > 100 µM; GI50 (SK-MEL-28 melanoma): > 100 µM; TGI (SK-MEL-28 melanoma): > 100 µM; GI50 (LOX IMVI melanoma): > 100 µM; TGI (LOX IMVI melanoma): > 100 µM |
